Format in all cases: in vivo
Assay [1] deals with LTG-resistant amygdala kindled seizures. As to the kind of experiment: Lamotrigine (LTG) resistant amygdala kindled seizure rat model. The note with it: for Duration (sec) ± SD (afterdischarge) / N/F, number of animals active over the number tested / Seizure Score ± SEM: 0.25 hr. An excerpt:
The LTG-resistant amygdala kindled rat model is useful for not only identifying compounds effective against secondarily generalized partial seizures, but also allows for the differentiation of compounds that may be effective in therapy-resistant patients. […] Conversely, valproate can both prevent kindling development and block the expression of fully kindled seizures. The addition of the traditional ASDs, carbamazepine or lamotrigine, during the development of kindled seizures in this model will ultimately impair the effectiveness of lamotrigine against a fully expressed kindled seizure. […] This model may serve as a means to identify compounds which may be effective against therapy-resistant seizures. Anesthetized male Sprague-Dawley rats (250-300 g) are surgically implanted with an electrode into the left amygdala. Animals are then allowed to recover for one week before commencing kindling. The kindling procedure consists of delivering a 200 μAmp stimulus (suprathreshold) daily until all animals in both treatment groups display consistent Stage 4 or 5 seizures. One week after all animals are kindled, the animals receive a challenge dose of LTG (30 mg/kg, i.p.) before being stimulated to confirm the LTG sensitivity of the vehicle-treated control animals, as well as the LTG-resistance of the LTG-treated group. The animals are then allowed a washout of 3 days. On day 3 of the washout, the animals are pre-stimulated to ensure recovery of the fully kindled seizure. On day 4, kindled rats are challenged with a dose of an investigational agent (the dose that produced minimal motor impairment) and then challenged with the kindling stimulus at the predetermined TPE of the investigational drug. […] For this study, the ability of a candidate substance to reduce afterdischarge duration (ADD) and behavioral seizure scores (BSS) is quantitated by varying the dose between 0 and 100% effect. Unlike other acute seizure tests conducted by the ETSP, each kindled rat is allowed at least 3-4 days between tests to “washout” any investigational compound after testing. The average seizure scores±S.E.M. and afterdischarge duration (ADD) are noted, as are the number of animals protected from seizure (defined as a Racine score<3) over the number of animals tested.
The following procedure is used for surgical implantation of Electrodes. Male Spraque-Dawey rats are anesthetized using 1-3% isoflurane or a Ketamine/Xylazine cocktail. Ketamine is provided as 100 mg/ml solution, and dose 50 mg/kg given i.p. Xylazine is provided as 100 mg/ml solution, and dose 20 mg/kg given i.p. Mix the two solutions together in one syringe and administer i.p as one injection. Rat is monitored through surgery. If the rat is responsive to a tail pinch administer half the dose of Ketamine/xylazine or increase the isoflurane percentage. Administer buprenorphine at 0.02 mg/kg s.c. for pain management. An electric razor is used to shave the surface of the head. The rat is placed on an external heat source on the stereotaxic apparatus such that the height of the incisor bar and the positioning of the ear bars ensure consistency with the reference atlas. The entire scalp is scrubbed with betadine (3×) and wiped with alcohol. Ophthalmic ointment is applied to each eye. All instruments are sterilized via autoclave before beginning surgery. During surgery instruments are placed on a sterile drape. For subsequent surgeries on the same day, instruments can be placed into the hot bead sterilizer between surgeries. Stainless steel screws and electrodes are sterilized in 70% alcohol and place on a sterile drape. A sterile scalpel blade is used to make a midline scalp incision beginning from a point even with the eyes and extending back to and imaginary line connecting the ear. The fascia should be gently split and pulled away by from the scalp. The incision can be held open using retractors/forceps. […]

The test system of the next assay is corneal kindled seizures. Description: Corneal kindling mouse model. The source says:
Mice are kindled electrically with 3 sec stimulation, 8 mA, 60 Hz, and corneal electrodes to a criterion of 10 consecutive Stage 5 seizures (facial clonus and head nodding progressing to forelimb clonus, and finally rearing and falling accompanied by a generalized clonic seizure as described by Racine). Stage 5 is generally reached after twice daily stimulation for 8 days. With continued stimulation once a day, animals usually progress to a reproducible Stage 5 after 10-14 additional days. At least 72 hours after the mice have been kindled, the test substance is administered either i.p. or p.o. and, at the previously determined TPE, each animal is given the electrical stimulus indicated above. Following stimulation, the animals are observed for the presence or absence of the rearing and falling criteria of a Stage 5 seizure. Treated animals not displaying a Stage 3, 4, or 5 seizure are considered protected. The dose of the test substance is varied between the limits of 0 and 100% efficacy, and the ED50 and 95% confidence intervals calculated by probit analysis. Mean values and the S.E.M. are calculated for the length of clonus and seizure duration and p values are determined by the Student's t-test.

Assay [2] deals with fully kindled (stage 5) seizures, amygdala kindled rat. As to the kind of experiment: Amygdala kindled rat model. Particulars: <60 mg/kg i.p. An excerpt:
Amygdala kindling model is an animal model for complex partial seizures, which is the most common type of epilepsy in adults and is often drug resistant.

The next assay concerns 6 Hz psychomotor seizure. As to the kind of experiment: Mouse 6 Hz model. Particulars: mice, ip, 0.5 hour, 32 mA. As for the experimental part:
Male, Sprague-Dawley rats and CD-1 mice were used for all studies. All animals were allowed ad-lib access to food and water except during experiment. Animals were housed within an animal vivarium maintained under a 12 h light:dark cycle (lights on: 07:00 h), and all experiments were conducted in the animals light phase. For all experiments, animals were habituated to the vivarium for a minimum of 72 h before experimentation. The experimental procedures used in the present investigation were conducted under the Association for Assessment and Accreditation of Laboratory Animal Care (AAALAC) and the Canadian Council on Animal Care (CCAC) guidelines. All compounds were sonicated in 5% Tween 80® in saline or methylcellulose 0.5% (wgt/vol), using MC and sterile water and injected in a dose volume of 5 ml/kg or 10 ml/kg (rat), and 10 ml/kg (mouse). Drugs were administered by either the oral, intraperitoneal or intravenous route. […] Preliminary experiments established that these stimulus parameters elicited a psychomotor seizure, defined as the expression of at least one of the following behaviors: stun/immobility, forelimb clonus, straub tail, vibrissae tremor, lateral head movement in >95% of control animals. Protection was defined as complete absence of all the above behaviors within 20 s of stimulus delivery. The effective dose of compound necessary to protect against psychomotor seizures to 50% of controls (i.e. ED50) was determined by curve fitting program (Prism v.4.02).

The record followed here is patent US10604476B2, “Fluorinated amide derivatives and their uses as therapeutic agents” (Trillium Therapeutics Inc., priority 2015, dated 2020).

Take `C[C@@H](Oc1cc(Cl)cc(C(F)(F)F)c1)C(N)=O` [I(D), (2R)-2-[3-chloro-5-(trifluoromethyl)-phenoxy]propanamide]: the “Duration (sec) ± SD (afterdischarge)” value in assay [1] (10 mg/kg i.p.) came to 158.5 ± 21.5 s; in assay [1] (25 mg/kg i.p.) it was 71.0 ± 13.61 s; in assay [1] (37.5 mg/kg i.p.), 54.2 ± 10.38 s; in assay [1] (50 mg/kg i.p.) it was 71.0 ± 13.61 s. For the same compound, the “N/F, number of animals active over the number tested” value was 0/2 in assay [1] (10 mg/kg i.p.); 1/5 in assay [1] (25 mg/kg i.p.); 3/5 in assay [1] (37.5 mg/kg i.p.); 6/6 in assay [1] (50 mg/kg i.p.); 0/8 in the assay on corneal kindled seizures (35 mg/kg); 1/8 in the assay on corneal kindled seizures (70 mg/kg). Also, the “N/F, number of animals active over the number tested” value with corneal kindled seizures (140 mg/kg) was 5/8; in the assay with corneal kindled seizures (300 mg/kg), 8/8. In addition, the “Seizure Score ± SEM” value is reported as 5 ± 0.0 in assay [1] (10 mg/kg i.p.), 4.4 ± 0.6 in assay [1] (25 mg/kg i.p.), 3.2 ± 0.75 in assay [1] (37.5 mg/kg i.p.) and 0.83 ± 0.17 in assay [1] (50 mg/kg i.p.). In addition, the “EC50, reduction of seizure score (seizure severity)” value in assay [1] (i.p., LTG-resistant kindled rats) turned out to be 32.55 ± 3.58 mg/kg. Besides, the “Average Seizure” value with corneal kindled seizures (35 mg/kg) turned out to be 5; in the assay with corneal kindled seizures (70 mg/kg) it was 4.6; in the assay on corneal kindled seizures (140 mg/kg), 2.4; in the assay with corneal kindled seizures (300 mg/kg) it was 0.8. Further, the median effective dose (ED50) in the assay with corneal kindled seizures (Mus musculus, corneal kindled mice, read-out: ED50, reduction of seizure score (seizure severity)) was determined as 70.4 ± 1 mg/kg; with 6 Hz psychomotor seizure it was 48.5 ± 1 mg/kg. Moreover, the “suppression of fully kindled (stage 5) seizures compared to vehicle controls” value in assay [2] is “dose related suppression”.
With `NC(=O)COc1cc(C(F)(F)F)cc(C(F)(F)F)c1` [I(F), 2-[3,5 bis(trifluoromethyl)-phenoxy]acetamide;], the ED50 in the assay on 6 Hz psychomotor seizure is 38.5 ± 1 mg/kg.

One may read the ED50 as the dose that gives a 50% effect, or the effect in half of the subjects.
